Type in all cases: functional
The subject of one test is Acinetobacter baumannii. Kind of test: Antibacterial activity against Acinetobacter baumannii assessed as bacterial growth inhibition incubated for 24 hrs by broth microdilution method. Background: Broth dilution looks for growth in wells or tubes with falling amounts of substance.
The subject of test [1] is Escherichia coli. The test can be described thus: Antibacterial activity against Escherichia coli assessed as bacterial growth inhibition incubated for 24 hrs by broth microdilution method.
The next test has as its system Klebsiella pneumoniae. The test can be described thus: Antibacterial activity against Klebsiella pneumoniae assessed as bacterial growth inhibition incubated for 24 hrs by broth microdilution method.
In test [2] the test system is Pseudomonas aeruginosa. Kind of test: Antibacterial activity against Pseudomonas aeruginosa assessed as bacterial growth inhibition incubated for 24 hrs by broth microdilution method.
Test [3] has as its system Staphylococcus aureus. Kind of test: Antibacterial activity against Staphylococcus aureus ATCC 29213 assessed as bacterial growth inhibition incubated for 24 hrs by broth microdilution method.
A further test has as its system Enterococcus faecalis. Kind of test: Antibacterial activity against Enterococcus faecalis assessed as bacterial growth inhibition incubated for 24 hrs by broth microdilution method.
Test [4] relates to Staphylococcus aureus. Kind of test: Antibacterial activity against methicillin-resistant Staphylococcus aureus assessed as bacterial growth inhibition incubated for 24 hrs by broth microdilution method.
The test system of test [5] is Staphylococcus aureus. Kind of test: Antibacterial activity against Staphylococcus aureus ATCC 25923 assessed as bacterial growth inhibition incubated for 24 hrs by broth microdilution method.
For test [6], the system named is Escherichia coli. Kind of test: Antibacterial activity against Escherichia coli ATCC 25922 assessed as bacterial growth inhibition incubated for 24 hrs by broth microdilution method.
Test [7] deals with Pseudomonas aeruginosa. The test can be described thus: Antibacterial activity against Pseudomonas aeruginosa ATCC 27853 assessed as bacterial growth inhibition incubated for 24 hrs by broth microdilution method.
In test [8] the test system is Staphylococcus aureus. The test can be described thus: Antibacterial activity against Staphylococcus aureus assessed as bacterial growth inhibition incubated for 24 hrs by broth microdilution method.

Molecules are shown by their SMILES. ≈ marks a conversion by molar mass, not a printed value.

The MIC is the least concentration at which growth counts as inhibited. For the molecule `CN(C)c1nccc(-n2cncn2)n1`, the MIC was found to be 1350 µM (≈ 256 µg/mL) in the test with Acinetobacter baumannii; 1350 µM (≈ 256 µg/mL) in the test on Escherichia coli [1]; 1350 µM (≈ 256 µg/mL) with Klebsiella pneumoniae; 337 µM (≈ 64.1 µg/mL) in the test with Pseudomonas aeruginosa [2]; 1350 µM (≈ 256 µg/mL) with Staphylococcus aureus [3]; 1350 µM (≈ 256 µg/mL) in the test on Enterococcus faecalis. Further, the MIC was determined as 1350 µM (≈ 256 µg/mL) in the test with Staphylococcus aureus [4]; 1350 µM (≈ 256 µg/mL) in the test on Staphylococcus aureus [5]; 673 µM (≈ 128 µg/mL) in the test on Escherichia coli [6]; 1350 µM (≈ 256 µg/mL) in the test on Pseudomonas aeruginosa [7]; 1350 µM (≈ 256 µg/mL) with Staphylococcus aureus [8].

Turning to `O=C1c2cccc3c(N4CCN(c5nccc(-n6cncn6)n5)CC4)ccc(c23)C(=O)N1C(CO)CO`, the MIC with Acinetobacter baumannii was determined as 512 µM (≈ 256 µg/mL); in the test with Escherichia coli [1], 512 µM (≈ 256 µg/mL); in the test on Klebsiella pneumoniae, 226 µM (≈ 113 µg/mL); in the test with Pseudomonas aeruginosa [2], 512 µM (≈ 256 µg/mL); in the test with Staphylococcus aureus [3] it was 512 µM (≈ 256 µg/mL); with Enterococcus faecalis, 256 µM (≈ 128 µg/mL). Also, the MIC in the test with Staphylococcus aureus [4] was found to be 512 µM (≈ 256 µg/mL); with Staphylococcus aureus [5], 64 µM (≈ 32 µg/mL); in the test with Escherichia coli [6] it was 255 µM (≈ 128 µg/mL); with Pseudomonas aeruginosa [7], 512 µM (≈ 256 µg/mL); in the test on Staphylococcus aureus [8], 512 µM (≈ 256 µg/mL).

For the molecule `O=C1c2cccc3c(N4CCN(c5nccc(-n6cncn6)n5)CC4)ccc(c23)C(=O)N1CCO`, the MIC with Acinetobacter baumannii is 272 µM (≈ 128 µg/mL); in the test with Escherichia coli [1], 545 µM (≈ 256 µg/mL); in the test with Klebsiella pneumoniae it was 545 µM (≈ 256 µg/mL); in the test on Pseudomonas aeruginosa [2] it was 545 µM (≈ 256 µg/mL); with Staphylococcus aureus [3] it was 9 µM (≈ 4.23 µg/mL); in the test with Enterococcus faecalis, 545 µM (≈ 256 µg/mL). The MIC came to 545 µM (≈ 256 µg/mL) in the test on Staphylococcus aureus [4]; 68 µM (≈ 32 µg/mL) with Staphylococcus aureus [5]; 545 µM (≈ 256 µg/mL) in the test with Escherichia coli [6]; 545 µM (≈ 256 µg/mL) in the test with Pseudomonas aeruginosa [7]; 545 µM (≈ 256 µg/mL) in the test on Staphylococcus aureus [8].

In the case of `CO/N=C(/C(=O)N1CCN(c2nccc(-n3cncn3)n2)CC1)c1csc(N)n1`, the MIC in the test with Acinetobacter baumannii stood at 294 µM (≈ 122 µg/mL); in the test on Escherichia coli [1] it was 294 µM (≈ 122 µg/mL); in the test with Klebsiella pneumoniae, 147 µM (≈ 60.9 µg/mL); with Pseudomonas aeruginosa [2], 587 µM (≈ 243 µg/mL); with Staphylococcus aureus [3], 587 µM (≈ 243 µg/mL); with Enterococcus faecalis, 294 µM (≈ 122 µg/mL). The MIC in the test on Staphylococcus aureus [4] worked out at 294 µM (≈ 122 µg/mL); in the test on Staphylococcus aureus [5], 587 µM (≈ 243 µg/mL); with Escherichia coli [6], 147 µM (≈ 60.9 µg/mL); in the test on Pseudomonas aeruginosa [7], 294 µM (≈ 122 µg/mL); in the test with Staphylococcus aureus [8], 294 µM (≈ 122 µg/mL).

Take `CN(CCO)c1nccc(-n2cncn2)n1`: the MIC with Acinetobacter baumannii came to 1360 µM (≈ 300 µg/mL); in the test with Escherichia coli [1] it was 1160 µM (≈ 256 µg/mL); in the test on Klebsiella pneumoniae it was 1160 µM (≈ 256 µg/mL); in the test on Pseudomonas aeruginosa [2] it was 291 µM (≈ 64.1 µg/mL); in the test on Staphylococcus aureus [3], 1160 µM (≈ 256 µg/mL); with Enterococcus faecalis it was 582 µM (≈ 128 µg/mL). Also, the MIC in the test with Staphylococcus aureus [4] came out at 1160 µM (≈ 256 µg/mL); in the test with Staphylococcus aureus [5] it was 1160 µM (≈ 256 µg/mL); in the test on Escherichia coli [6] it was 582 µM (≈ 128 µg/mL); in the test on Pseudomonas aeruginosa [7], 1160 µM (≈ 256 µg/mL); in the test with Staphylococcus aureus [8], 1160 µM (≈ 256 µg/mL).

For the molecule `Brc1ccc2c3ccccc3n(-c3nccc(-n4cncn4)n3)c2c1`, the MIC with Acinetobacter baumannii turned out to be 656 µM (≈ 257 µg/mL); in the test with Escherichia coli [1], 656 µM (≈ 257 µg/mL); in the test with Klebsiella pneumoniae, 656 µM (≈ 257 µg/mL); with Pseudomonas aeruginosa [2], 1 µM (≈ 0.391 µg/mL); with Staphylococcus aureus [3] it was 656 µM (≈ 257 µg/mL); in the test on Enterococcus faecalis it was 164 µM (≈ 64.2 µg/mL). Also, the MIC in the test with Staphylococcus aureus [4] was determined as 656 µM (≈ 257 µg/mL); in the test with Staphylococcus aureus [5], 1660 µM (≈ 648 µg/mL); with Escherichia coli [6], 656 µM (≈ 257 µg/mL); with Pseudomonas aeruginosa [7], 656 µM (≈ 257 µg/mL); with Staphylococcus aureus [8], 5 µM (≈ 1.96 µg/mL).

As for `OCCN(CCO)c1nccc(-n2cnc3cc(Br)ccc32)n1`, the MIC is 170 µM (≈ 64.3 µg/mL) in the test with Acinetobacter baumannii; 1360 µM (≈ 514 µg/mL) in the test on Escherichia coli [1]; 170 µM (≈ 64.3 µg/mL) in the test with Klebsiella pneumoniae; 339 µM (≈ 128 µg/mL) in the test on Pseudomonas aeruginosa [2]; 85 µM (≈ 32.1 µg/mL) in the test on Staphylococcus aureus [3]; 679 µM (≈ 257 µg/mL) with Enterococcus faecalis. Moreover, the MIC in the test on Staphylococcus aureus [4] turned out to be 339 µM (≈ 128 µg/mL); in the test with Staphylococcus aureus [5], 339 µM (≈ 128 µg/mL); in the test with Escherichia coli [6], 1360 µM (≈ 514 µg/mL); in the test on Pseudomonas aeruginosa [7], 85 µM (≈ 32.1 µg/mL); with Staphylococcus aureus [8] it was 1360 µM (≈ 514 µg/mL).

With `CCc1nccn1-c1nccc(N(CCO)CCO)n1`, the MIC amounted to 924 µM (≈ 256 µg/mL) in the test on Acinetobacter baumannii; 924 µM (≈ 256 µg/mL) in the test with Escherichia coli [1]; 1850 µM (≈ 512 µg/mL) in the test on Klebsiella pneumoniae; 924 µM (≈ 256 µg/mL) in the test with Pseudomonas aeruginosa [2]; 924 µM (≈ 256 µg/mL) in the test on Staphylococcus aureus [3]; 924 µM (≈ 256 µg/mL) in the test with Enterococcus faecalis. In addition, the MIC with Staphylococcus aureus [4], in the test on Staphylococcus aureus [5], with Escherichia coli [6], in the test on Pseudomonas aeruginosa [7] and in the test with Staphylococcus aureus [8] was 924 µM (≈ 256 µg/mL) each time.

For the molecule `Nc1ccc(S(=O)(=O)Nc2ncccn2)cc1` [SULFADIAZINE], the MIC was found to be 64 µM (≈ 16 µg/mL) with Acinetobacter baumannii; 64 µM (≈ 16 µg/mL) with Escherichia coli [1]; 1020 µM (≈ 256 µg/mL) in the test with Klebsiella pneumoniae; 31 µM (≈ 7.76 µg/mL) with Pseudomonas aeruginosa [2]; 54 µM (≈ 13.5 µg/mL) in the test on Staphylococcus aureus [3]; 64 µM (≈ 16 µg/mL) with Enterococcus faecalis. Also, the MIC is 256 µM (≈ 64.1 µg/mL) in the test with Staphylococcus aureus [4]; 129 µM (≈ 32.3 µg/mL) in the test on Staphylococcus aureus [5]; 64 µM (≈ 16 µg/mL) in the test with Escherichia coli [6]; 64 µM (≈ 16 µg/mL) in the test with Pseudomonas aeruginosa [7]; 256 µM (≈ 64.1 µg/mL) with Staphylococcus aureus [8].

For the molecule `Cc1nc2ccccc2n1-c1ccnc(N(CCO)CCO)n1`, the MIC is 204 µM (≈ 63.9 µg/mL) in the test with Acinetobacter baumannii; 51 µM (≈ 16 µg/mL) in the test with Escherichia coli [1]; 204 µM (≈ 63.9 µg/mL) in the test with Klebsiella pneumoniae; 26 µM (≈ 8.15 µg/mL) in the test with Pseudomonas aeruginosa [2]; 204 µM (≈ 63.9 µg/mL) with Staphylococcus aureus [3]; 409 µM (≈ 128 µg/mL) in the test with Enterococcus faecalis. The MIC with Staphylococcus aureus [4] was determined as 204 µM (≈ 63.9 µg/mL); in the test on Staphylococcus aureus [5], 102 µM (≈ 32 µg/mL); in the test with Escherichia coli [6], 817 µM (≈ 256 µg/mL); with Pseudomonas aeruginosa [7], 102 µM (≈ 32 µg/mL); in the test with Staphylococcus aureus [8], 102 µM (≈ 32 µg/mL).

The values above are taken from ChEMBL document CHEMBL5380831, “Azolylpyrimidinediols as Novel Structural Scaffolds of DNA-Groove Binders against Intractable Acinetobacter baumannii” (J Med Chem, 2023).
